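Results reflect a 48-hour exposure of cells in 96-well plates to compound at five concentrations. The concentration for full growth arrest is given as TGI.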
Legend:
Experiment in all cases: NCI tumour cell line growth inhibition, 48 h
U251 CNS = system: U251 CNS
K-562 leukemia = system: K-562 leukemia
SN12C renal = system: SN12C renal
COLO 205 colon = system: COLO 205 colon
MDA-N = system: MDA-N
DU-145 prostate = system: DU-145 prostate
NCI/ADR-RES ovarian = system: NCI/ADR-RES ovarian
SF-268 CNS = system: SF-268 CNS
OVCAR-5 ovarian = system: OVCAR-5 ovarian
HCT-15 colon = system: HCT-15 colon
LOX IMVI melanoma = system: LOX IMVI melanoma
SK-MEL-2 melanoma = system: SK-MEL-2 melanoma
EKVX NSCLC = system: EKVX NSCLC
A498 renal = system: A498 renal
M14 melanoma = system: M14 melanoma
SK-OV-3 ovarian = system: SK-OV-3 ovarian
HCC-2998 colon = system: HCC-2998 colon
HL-60(TB) leukemia = system: HL-60(TB) leukemia
CCRF-CEM leukemia = system: CCRF-CEM leukemia
TK-10 renal = system: TK-10 renal

SMILES | TGI (U251 CNS) | TGI (K-562 leukemia) | TGI (SN12C renal) | TGI (COLO 205 colon) | TGI (MDA-N) | TGI (DU-145 prostate) | TGI (NCI/ADR-RES ovarian) | TGI (SF-268 CNS) | TGI (OVCAR-5 ovarian) | TGI (HCT-15 colon) | TGI (LOX IMVI melanoma) | TGI (SK-MEL-2 melanoma) | TGI (EKVX NSCLC) | TGI (A498 renal) | TGI (M14 melanoma) | TGI (SK-OV-3 ovarian) | TGI (HCC-2998 colon) | TGI (HL-60(TB) leukemia) | TGI (CCRF-CEM leukemia) | TGI (TK-10 renal)
N#CC(N)c1ccc(OCCCCCCCCCCOc2ccc(C(N)C#N)cc2)cc1 (stereo not drawn) | > 100 µM | > 100 µM | > 100 µM | > 100 µM | > 100 µM | > 100 µM | > 100 µM | > 100 µM | > 100 µM | > 100 µM | > 100 µM | > 100 µM | > 100 µM | > 100 µM | > 100 µM | > 100 µM | > 100 µM | > 100 µM | 67.8 µM | > 100 µM
CN(C)CCCC1c2ccccc2Oc2ccc(C(F)(F)F)cc21 (stereo not drawn) | 23.9 µM | 18.3 µM | 28.2 µM | 17.7 µM | 15.2 µM | 31.1 µM | 28.3 µM | 28.5 µM | 29.2 µM | 31.5 µM | 31.6 µM | 28.5 µM | 31.3 µM | 25.9 µM | 14.2 µM | 30.7 µM | 4.97 µM | 28.1 µM | 31.5 µM | 29.3 µM
O=C(NC(Cl)(C(F)(F)F)C(F)(F)F)c1ccc(F)cc1 | > 100 µM | > 100 µM | > 100 µM | > 100 µM | > 100 µM | > 100 µM | > 100 µM | > 100 µM | > 100 µM | > 100 µM | > 100 µM | > 100 µM | > 100 µM | > 100 µM | > 100 µM | > 100 µM | > 100 µM | > 100 µM | > 100 µM | > 100 µM
C=CCNC(=S)N=Nc1c(O)n(CN2CCOCC2)c2ccc([N+](=O)[O-])cc12 | > 100 µM | > 100 µM | > 100 µM | > 100 µM | > 100 µM | > 100 µM | > 100 µM | > 100 µM | > 100 µM | > 100 µM | > 100 µM | > 100 µM | > 100 µM | 65.6 µM | > 100 µM | > 100 µM | 90.3 µM | > 100 µM | > 100 µM | 93.1 µM
CCOP(=O)(C=C=C1CCC2[C@@H]3CCc4cc(OC)ccc4C3CC[C@]12C)OCC (stereo partly drawn) | 25.5 µM | 10.7 µM | 23 µM | 22.7 µM | 26 µM | 30 µM | 24.2 µM | 28 µM | 31.4 µM | 24.8 µM | 24.8 µM | 26.5 µM | 21.9 µM | 25.9 µM | 24.3 µM | 31.8 µM | 25.2 µM | 2.87 µM | – | 25.6 µM
COc1cc(C(=O)/C=C/c2ccc(OCCSCCCCCCCCCCSCCOc3ccc(/C=C/C(=O)c4cc(OC)c(OC)c(OC)c4)cc3)cc2)cc(OC)c1OC | > 100 µM | > 100 µM | > 100 µM | > 100 µM | > 100 µM | > 100 µM | > 100 µM | > 100 µM | > 100 µM | > 100 µM | > 100 µM | > 100 µM | > 100 µM | > 100 µM | > 100 µM | – | > 100 µM | > 100 µM | > 100 µM | > 100 µM

From PubChem BioAssay (NCI)
